Data reported in patent US20110082037A1, “Adjuvant Compositions” (COGNIS IP MANAGEMENT GMBH, priority 2008, published 2011).
Counter-ions that a name gives are not always drawn.

Legend:
[1] = tested on: black nightshade SOLNI (Solanum Nigrum); assay: Greenhouse experiment: influence of adjuvants on glyphosate efficacy on black nightshade (fresh weight 14 DAT); assay type: in vivo; conditions: adjuvant 0.25% w/v
Experimental: (§1) Greenhouse experiments were conducted to investigate the potency of the mixtures of alkoxylated oligoglycosides and alkoxylated primary alcohols as adjuvants for glyphosate. Winter wheat (Triticum aestivum) was used as a model for difficult-to-wet grasses and black night-shade (Solanum nigrum) was used as a model plant with an easy-to-wet, but difficult-to-penetrate, leaf surface. Both were grown in a growth chamber under 14 hours of light, at 18/12(±0.5)° C. (day/night) temperature, and in 70/80(±5)% (day/night) relative humidity. Light was provided by high-pressure mercury lamps and fluorescent tubes to give 70 W/m^2 (PAR) at leaf level. The plants were grown in 11 cm diameter plastic pots filled with a mixture of sand and humic potting soil (1:2 by volume). The pots were placed on sub-irrigation matting which was wetted daily with half-strength nutrient solution. After emergence, the wheat seedlings were thinned to six plants/pot for the efficacy experiments. Black nightshade seedlings were thinned to one plant/pot. Black nightshade and wheat were treated at the three- and the four-leaf stage, respectively. The fresh weights of the plants were measured 14 days after treatment (DAT) for black nightshade and 21 DAT for wheat. The glyphosate solutions were applied with an air-pressured laboratory track sprayer with 1.2-mm nozzles fitted with a perforated (0.6 mm) whirling pin and delivering 200 L/ha at 303 kPa. These were added to the unformulated monoisopropylamine salt of glyphosate [MON 8717 (glyphosate IPA salt 648 gai/litre=2.84 M without adjuvant)] at a concentration of 0.25% (w/v). Demineralised water was used as the carrier.
(§2) Based on previous work, these rates were 77.8 gae/hectare (equivalent to 2.3 mM at 200 litres/hectare) on wheat and 30.4 gae/hectare (equivalent to 0.9 mM) on black nightshade. The experiments were conducted as a randomised complete block with four replicates. Two separate experiments were conducted for each of the two plant species. The data was subjected to analysis of variance using the Genstat statistical package (Release 6.1 from Rothamsted Experimental Station). The performance of the products on both species was expressed as a percentage of the FW of untreated plants. Examples 1 to 8 are according to the invention, examples C1 to C12 serve as comparison.

[2] = tested on: Winter wheat (Triticum aestivum); assay: Greenhouse experiment: influence of adjuvants on glyphosate efficacy on wheat (fresh weight 21 DAT); assay type: in vivo; conditions: adjuvant 0.25% w/v
Experimental: as §1, §2

[3] = 0.6 mM glyphosate (20.3 g a.e./ha at 200 L/ha)
[4] = 0.9 mM glyphosate (30.4 g a.e./ha at 200 L/ha)
[5] = average of trials 1 and 2, glyphosate 2.3 mM
[6] = glyphosate 2.3 mM (77.8 g a.e./ha at 200 L/ha)

O=C(O)CNCP(=O)(O)O [Gly, monoisopropylamine salt of glyphosate]
Trial 2 % (FW as percentage of the FW of untreated plants) [1, 3]: 84.5% | Trial 2 g FW [1, 3]: 14.66 g | Trial 1 % (FW as percentage of the FW of untreated plants) [1, 4]: 35.1% | Trial 1 g FW [1, 4]: 5.59 g | Average % (FW as percentage of the FW of untreated plants) [2, 5]: 78.3% | Average g FW [2, 5]: 18.15 g | Trial 1 g FW [2, 6]: 22.33 g | Trial 2 g FW [2, 6]: 13.97 g
